# Data taken from paper PMC4976878 (PLoS ONE, 2016).
# pIC50: −log10 of the molar value.
# Experiments:
# [1] = target: T1, BmMetRS (Brucella melitensis methionyl-tRNA-synthetase) (Brucella abortus, UniProt Q2YQ76); assay: biochemical
# T1 construct: gene metG
# [2] = target: T2, human mitochondrial MetRS (Homo sapiens, UniProt Q96GW9); assay: enzyme inhibition, assay not given; type: biochemical
# T2 construct: gene MARS2
# T2 sequence (Q96GW9 30-593): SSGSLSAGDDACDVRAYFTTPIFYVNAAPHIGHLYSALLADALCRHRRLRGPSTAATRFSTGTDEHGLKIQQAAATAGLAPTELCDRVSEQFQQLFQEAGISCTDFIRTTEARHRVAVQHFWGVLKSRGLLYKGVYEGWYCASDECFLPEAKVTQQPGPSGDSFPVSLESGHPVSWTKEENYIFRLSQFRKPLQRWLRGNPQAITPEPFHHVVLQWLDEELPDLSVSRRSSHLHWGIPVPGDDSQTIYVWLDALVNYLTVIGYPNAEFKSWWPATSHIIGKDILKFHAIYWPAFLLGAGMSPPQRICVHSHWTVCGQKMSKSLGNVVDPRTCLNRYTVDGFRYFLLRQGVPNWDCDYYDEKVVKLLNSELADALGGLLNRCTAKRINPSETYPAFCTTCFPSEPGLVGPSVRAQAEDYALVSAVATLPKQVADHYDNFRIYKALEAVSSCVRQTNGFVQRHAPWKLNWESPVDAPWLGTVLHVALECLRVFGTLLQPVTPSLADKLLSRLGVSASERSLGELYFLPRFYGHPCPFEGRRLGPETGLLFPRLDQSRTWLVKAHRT
# T1 sequence (Q2YQ76 1-515 limits assumed): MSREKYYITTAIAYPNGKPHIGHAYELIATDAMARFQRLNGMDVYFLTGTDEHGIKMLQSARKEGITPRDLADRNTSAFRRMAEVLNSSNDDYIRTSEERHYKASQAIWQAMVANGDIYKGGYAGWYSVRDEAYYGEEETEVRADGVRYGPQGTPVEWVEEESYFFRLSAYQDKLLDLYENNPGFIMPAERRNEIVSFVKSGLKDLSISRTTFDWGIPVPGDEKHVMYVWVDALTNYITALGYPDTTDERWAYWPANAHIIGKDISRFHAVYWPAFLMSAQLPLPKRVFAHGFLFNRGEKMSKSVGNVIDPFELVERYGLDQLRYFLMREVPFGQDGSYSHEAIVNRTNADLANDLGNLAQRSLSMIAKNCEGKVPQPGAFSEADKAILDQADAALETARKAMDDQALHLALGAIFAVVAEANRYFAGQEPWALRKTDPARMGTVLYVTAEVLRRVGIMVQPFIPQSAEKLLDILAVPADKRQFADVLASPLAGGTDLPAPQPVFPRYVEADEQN
Compound,pIC50 [1],IC50 [2]
"O=c1cc(NCCCNCc2cc(Cl)cc(Cl)c2)[nH]c2ccccc12 [compound 1312, 1312]",8.22,the IC50 values from human mitochondrial MetRS is very similar to that of BmMetRS
"COc1cc(Cl)cc(CNCCCNC(=O)Nc2ccccc2)c1 [compound 1415, 1415]",5.78,The characteristics of each inhibitor experimentally measured against human mitochondria MetRS
"O=C(NCCCNCc1cc(Cl)cc(Cl)c1)Nc1ccsc1 [compound 1433, 1433]",6.57,The characteristics of each inhibitor experimentally measured against human mitochondria MetRS
